Measurements reported in ChEMBL document CHEMBL3046293, “Fungicidal Activities of -Methoxyphenylacetic Acid Derivatives” (2002).

How the values were obtained:
Assay type in all cases: functional
Botrytis cinerea [1] = assay: Fungicidal activity against Botryotinia fuckeliana assessed as cucumber gray mold disease control at 7.8 ppm treated 24 hr before inoculation by preventive manner
Pyricularia oryzae [2] = assay: Fungicidal activity against Magnaporthe oryzae Cav. race 003 assessed as rice blast disease control at 31.3 ppm treated 24 hr before inoculation by preventive manner
Podosphaera fuliginea = assay: Fungicidal activity against Podosphaera fuliginea assessed as cucumber powdery mildew disease control at 7.8 ppm treated 24 hr before inoculation by preventive manner
Pyricularia oryzae [3] = assay: Fungicidal activity against Magnaporthe oryzae Cav. race 003 assessed as rice blast disease control at 7.8 ppm foliar application for 24 hr before inoculation by preventive manner
Pyricularia oryzae [4] = assay: Fungicidal activity against Magnaporthe oryzae Cav. race 003 assessed as rice blast disease control at 31.3 ppm foliar application for 24 hr before inoculation by preventive manner
Pyricularia oryzae [5] = assay: Fungicidal activity against Magnaporthe oryzae Cav. race 003 assessed as rice blast disease control at 125 ppm foliar application for 24 hr before inoculation by preventive manner
Pyricularia oryzae [6] = assay: Fungicidal activity against Magnaporthe oryzae Cav. race 003 assessed as rice blast disease control at 2 ppm foliar application for 24 hr before inoculation by preventive manner
Botrytis cinerea [7] = assay: Fungicidal activity against Botryotinia fuckeliana assessed as cucumber gray mold disease control at 31.3 ppm foliar application 24 hr before inoculation by preventive manner
Botrytis cinerea [8] = assay: Fungicidal activity against Botryotinia fuckeliana assessed as cucumber gray mold disease control at 31.3 ppm foliar application 24 hr after inoculation by curative manner
Botrytis cinerea [9] = assay: Fungicidal activity against Botryotinia fuckeliana assessed as cucumber gray mold disease control at 125 ppm foliar application 24 hr after inoculation by curative manner
Botrytis cinerea [10] = assay: Fungicidal activity against Botryotinia fuckeliana assessed as cucumber gray mold disease control at 2 ppm foliar application 24 hr before inoculation by preventive manner
Botrytis cinerea [11] = assay: Fungicidal activity against Botryotinia fuckeliana assessed as cucumber gray mold disease control at 125 ppm foliar application 24 hr before inoculation by preventive manner
Botrytis cinerea [12] = assay: Fungicidal activity against Botryotinia fuckeliana assessed as cucumber gray mold disease control at 2 ppm foliar application 24 hr after inoculation by curative manner
Botrytis cinerea [13] = assay: Fungicidal activity against Botryotinia fuckeliana assessed as cucumber gray mold disease control at 7.8 ppm foliar application 24 hr after inoculation by curative manner
Botrytis cinerea [14] = assay: Fungicidal activity against Botryotinia fuckeliana assessed as cucumber gray mold disease control at 7.8 ppm foliar application 24 hr before inoculation by preventive manner

SMILES: CNC(=O)C(OC)c1cccc(COc2ccc(C)cc2C)c1 (stereo not drawn)
- Activity (Botrytis cinerea [1]): 50%
- Activity (Pyricularia oryzae [2]): 90%
- Activity (Podosphaera fuliginea): 90%

SMILES: CNC(=O)C(OC)c1cccc(COc2cc(C)cc(C)c2C)c1 (stereo not drawn)
- Activity (Botrytis cinerea [1]): 50%
- Activity (Pyricularia oryzae [2]): 90%
- Activity (Podosphaera fuliginea): 90%

SMILES: C/C(=N/Nc1nc(C)cc(C)n1)c1ccccc1C [FERIMZONE]
- Activity (Pyricularia oryzae [3]): 50%
- Activity (Pyricularia oryzae [4]): 90%
- Activity (Pyricularia oryzae [5]): 97%
- Activity (Pyricularia oryzae [6]): 30%

SMILES: CC(C)NC(=O)N1CC(=O)N(c2cc(Cl)cc(Cl)c2)C1=O [IPRODIONE]
- Activity (Botrytis cinerea [7]): 100%
- Activity (Botrytis cinerea [8]): 70%
- Activity (Botrytis cinerea [9]): 80%
- Activity (Botrytis cinerea [10]): 20%
- Activity (Botrytis cinerea [11]): 100%
- Activity (Botrytis cinerea [12]): 20%
- Activity (Botrytis cinerea [13]): 60%
- Activity (Botrytis cinerea [14]): 50%
